The results in this text go back to article PMC5711494, “Sterol methyltransferase a target for anti-amoeba therapy: towards transition state analog and suicide substrate drug design” (Journal of Lipid Research, 2017).

This assay has as its target Ac24-SMT (sterol 24-methyltransferase, SMT1) (Acanthamoeba castellanii, UniProt L8GNG7). The experiment in a line: Inhibition of recombinant Ac24-SMT assayed with native substrate cycloartenol and [methyl-3H3]SAM. Particulars: read-out: Ki against 24-SMT (competitive inhibitor); assayed with natural substrate. In kind it is biochemical. As to the method:
The SMT constructs were transformed into competent BL21(DE3) cells and transformants selected against 100 µg/ml ampicillin. Expression of the SMT constructs and partial purification of the recombinant proteins followed the procedure described previously ([19]). Briefly, a single colony for 24-SMT and 28-SMT were grown overnight in an orbital shaker (250–300 rpm) at 37°C in Luria broth containing ampicillin and then reinoculated in fresh medium at 1 in 10 dilution. […] In one tube, cells were induced by addition of isopropyl thio-galactoside at a final concentration of 1 mM and in the other tube, were un-induced. Cells were harvested 2 and 4 h after induction and an equal number of cells (as calculated by OD @600 nm) from induced (+) and un-induced (−) cultures were boiled with 1X Laemmli’s buffer and analyzed by SDS-PAGE (12%). […] Total protein concentrations were determined by Bradford dye-binding procedure with bovine γ-globulin as standard. […] Incubation mixtures were saponified with methanolic potassium hydroxide and extracted with hexane (3 × 1 ml) and concentrated to dryness providing the nonsaponifiable lipid fraction; radioactivity was determined by liquid scintillation counting. […] Controls containing radioactive SAM and no sterol used to background subtract radioactivity in these treatments was less than 500 dpm. […]

Sequence of Ac24-SMT (sterol 24-methyltransferase, SMT1) (L8GNG7 entry or part of it): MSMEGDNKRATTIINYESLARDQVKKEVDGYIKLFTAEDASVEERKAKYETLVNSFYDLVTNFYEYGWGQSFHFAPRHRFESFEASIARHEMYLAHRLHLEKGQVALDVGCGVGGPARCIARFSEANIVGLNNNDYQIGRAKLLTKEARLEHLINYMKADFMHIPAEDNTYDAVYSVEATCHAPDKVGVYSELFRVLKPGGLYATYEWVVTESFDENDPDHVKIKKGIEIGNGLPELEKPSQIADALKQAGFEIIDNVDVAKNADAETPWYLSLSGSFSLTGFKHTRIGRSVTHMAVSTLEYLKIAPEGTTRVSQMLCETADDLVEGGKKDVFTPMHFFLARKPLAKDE

Turning to `CC(CCC=C1CC1)C1CC[C@@]2(C)C3=C(CCC12C)C1(C)CCC(O)C(C)(C)C1CC3` (stereo partly shown) [DHL, 26,27-dehydrolanosterol], the Ki was 16 µM.
